Tests used:
[1] = molecular target: Sodium-dependent serotonin transporter (Homo sapiens, UniProt P31645); assay: SERT Eurofins SafetyScreen (Other); parameters: species or system Blocker
D(1A) dopamine receptor [2] = molecular target: T1, D(1A) dopamine receptor (Homo sapiens, UniProt P21728); assay: DRD1 Eurofins SafetyScan (Receptor)
[3] = molecular target: Glutamate receptor ionotropic, NMDA 2D (Homo sapiens, UniProt O15399+Q05586); assay: GluN2D-containing NMDA receptor (Ca2+ influx) assay (EC50)
[4] = molecular target: T2, Muscarinic acetylcholine receptor M3 (Homo sapiens, UniProt P20309); assay: CHRM3 Eurofins SafetyScan (Receptor)
[5] = molecular target: 5-hydroxytryptamine receptor 2A (Homo sapiens, UniProt P28223); assay: HTR2A Eurofins SafetyScan (Receptor)
[6] = molecular target: 5-hydroxytryptamine receptor 2B (Homo sapiens, UniProt P41595); assay: HTR2B Eurofins SafetyScan (Receptor)
[7] = molecular target: Sodium-dependent noradrenaline transporter (Homo sapiens, UniProt P23975); assay: NET Eurofins SafetyScreen (Other); parameters: species or system Blocker
[8] = molecular target: 5-hydroxytryptamine receptor 3A (Homo sapiens) (UniProt P46098); settings: Compound concentration 10.0 uM
[9] = molecular target: Alpha-2A adrenergic receptor (Homo sapiens, UniProt P08913); assay: ADRA2A Eurofins SafetyScan (Receptor)
Glucocorticoid receptor = Glucocorticoid receptor (Homo sapiens, UniProt P04150); assay: GR Eurofins SafetyScan (Receptor)
[10] = molecular target: Sodium-dependent dopamine transporter (Homo sapiens, UniProt Q01959); assay: DAT Eurofins SafetyScreen (Other); parameters: species or system Blocker
[11] = molecular target: T2, Muscarinic acetylcholine receptor M3; settings: Compound concentration 10.0 uM
D(1A) dopamine receptor [12] = molecular target: T1, D(1A) dopamine receptor; settings: Compound concentration 10.0 uM
Cannabinoid receptor 1 = Cannabinoid receptor 1 (Homo sapiens, UniProt P21554); assay: CNR1 Eurofins SafetyScan (Receptor)
Histamine H2 receptor [13] = molecular target: T3, Histamine H2 receptor (Homo sapiens, UniProt P25021); settings: Compound concentration 10.0 uM
[14] = molecular target: Potassium voltage-gated channel subfamily KQT member 1 (Homo sapiens, UniProt P51787); assay: KvLQT1/minK Eurofins SafetyScreen (Other); parameters: species or system Blocker
[15] = molecular target: Muscarinic acetylcholine receptor M2 (Homo sapiens, UniProt P08172); assay: CHRM2 Eurofins SafetyScan (Receptor)
[16] = molecular target: 5-hydroxytryptamine receptor 3A (Homo sapiens, UniProt P46098); assay: HTR3A Eurofins SafetyScreen (Other); parameters: species or system Blocker
[17] = molecular target: Gamma-aminobutyric acid receptor subunit alpha-1 (Homo sapiens, UniProt P14867); assay: GABAA Eurofins SafetyScreen (Other); parameters: species or system Blocker
[18] = molecular target: cGMP-inhibited 3',5'-cyclic phosphodiesterase 3A (Homo sapiens, UniProt Q14432); assay: PDE3A Eurofins SafetyScreen (Other); parameters: species or system Inhibitor
[19] = molecular target: Muscarinic acetylcholine receptor M2 (Homo sapiens) (UniProt P08172); settings: Compound concentration 10.0 uM
Acetylcholinesterase = Acetylcholinesterase (Homo sapiens, UniProt P22303); assay: AChE Eurofins SafetyScreen (Other); parameters: species or system Inhibitor
[20] = molecular target: Glutamate receptor ionotropic, NMDA 2B (Homo sapiens, UniProt Q05586+Q13224); assay: GluN2B-containing NMDA receptor (Ca2+ influx) assay (EC50)
[21] = molecular target: 3',5'-cyclic-AMP phosphodiesterase 4D (Homo sapiens, UniProt Q08499); assay: PDE4D2 Eurofins SafetyScreen (Other); parameters: species or system Inhibitor
Adenosine receptor A2a = Adenosine receptor A2a (Homo sapiens, UniProt P29274); assay: ADORA2A Eurofins SafetyScan (Receptor)
[22] = molecular target: Alpha-1B adrenergic receptor (Homo sapiens) (UniProt P35368); settings: Compound concentration 10.0 uM
[23] = molecular target: 5-hydroxytryptamine receptor 1B (Homo sapiens, UniProt P28222); assay: HTR1B Eurofins SafetyScan (Receptor)
[24] = molecular target: Kappa-type opioid receptor (Homo sapiens, UniProt P41145); assay: OPRK1 Eurofins SafetyScan (Receptor)
[25] = molecular target: D(3) dopamine receptor (Homo sapiens) (UniProt P35462); settings: Compound concentration 10.0 uM
Vasopressin V1a receptor = Vasopressin V1a receptor (Homo sapiens, UniProt P37288); assay: AVPR1A Eurofins SafetyScan (Receptor)
[26] = molecular target: Beta-3 adrenergic receptor (Homo sapiens) (UniProt P13945); settings: Compound concentration 10.0 uM
[27] = molecular target: Beta-2 adrenergic receptor (Homo sapiens, UniProt P07550); settings: Compound concentration 10.0 uM
[28] = molecular target: Muscarinic acetylcholine receptor M4 (Homo sapiens) (UniProt P08173); settings: Compound concentration 10.0 uM
[29] = molecular target: D(1B) dopamine receptor (Homo sapiens) (UniProt P21918); settings: Compound concentration 10.0 uM
[30] = molecular target: Sigma intracellular receptor 2 (Homo sapiens) (UniProt Q5BJF2); settings: Compound concentration 10.0 uM
[31] = molecular target: Glutamate receptor ionotropic, NMDA 2C (Homo sapiens, UniProt Q05586+Q14957); assay: GluN2C-containing NMDA receptor (Ca2+ influx) assay (EC50)
[32] = molecular target: Alpha-1D adrenergic receptor (Homo sapiens) (UniProt P25100); settings: Compound concentration 10.0 uM
[33] = molecular target: Tyrosine-protein kinase Lck (Homo sapiens, UniProt P06239); assay: LCK Eurofins SafetyScreen (Other); parameters: species or system Inhibitor
Androgen receptor = Androgen receptor (Homo sapiens, UniProt P10275); assay: AR Eurofins SafetyScan (Receptor)
[34] = molecular target: Prostaglandin G/H synthase 1 (Homo sapiens, UniProt P23219); assay: COX1 Eurofins SafetyScreen (Other); parameters: species or system Inhibitor
Endothelin-1 receptor = Endothelin-1 receptor (Homo sapiens, UniProt P25101); assay: EDNRA Eurofins SafetyScan (Receptor)
[35] = molecular target: Delta-type opioid receptor (Homo sapiens, UniProt P41143); assay: OPRD1 Eurofins SafetyScan (Receptor)
Histamine H1 receptor = Histamine H1 receptor (Homo sapiens, UniProt P35367); settings: Compound concentration 10.0 uM
D(2) dopamine receptor = D(2) dopamine receptor (Homo sapiens, UniProt P14416); assay: DRD2S Eurofins SafetyScan (Receptor)
Histamine H2 receptor [36] = molecular target: T3, Histamine H2 receptor; assay: HRH2 Eurofins SafetyScan (Receptor)

T1 sequence (P21728 whole entry): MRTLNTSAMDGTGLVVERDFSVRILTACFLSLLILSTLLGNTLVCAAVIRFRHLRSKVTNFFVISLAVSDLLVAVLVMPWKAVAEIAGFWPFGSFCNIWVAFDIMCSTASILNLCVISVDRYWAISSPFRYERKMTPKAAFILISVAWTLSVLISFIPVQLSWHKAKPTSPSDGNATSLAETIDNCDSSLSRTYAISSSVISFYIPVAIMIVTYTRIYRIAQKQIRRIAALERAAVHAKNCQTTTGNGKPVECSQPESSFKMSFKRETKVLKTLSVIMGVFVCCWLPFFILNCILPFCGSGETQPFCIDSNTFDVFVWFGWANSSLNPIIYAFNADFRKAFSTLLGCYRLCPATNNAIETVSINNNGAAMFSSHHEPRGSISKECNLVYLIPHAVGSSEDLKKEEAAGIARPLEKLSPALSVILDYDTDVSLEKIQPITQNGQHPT
T3 sequence (P25021 whole entry): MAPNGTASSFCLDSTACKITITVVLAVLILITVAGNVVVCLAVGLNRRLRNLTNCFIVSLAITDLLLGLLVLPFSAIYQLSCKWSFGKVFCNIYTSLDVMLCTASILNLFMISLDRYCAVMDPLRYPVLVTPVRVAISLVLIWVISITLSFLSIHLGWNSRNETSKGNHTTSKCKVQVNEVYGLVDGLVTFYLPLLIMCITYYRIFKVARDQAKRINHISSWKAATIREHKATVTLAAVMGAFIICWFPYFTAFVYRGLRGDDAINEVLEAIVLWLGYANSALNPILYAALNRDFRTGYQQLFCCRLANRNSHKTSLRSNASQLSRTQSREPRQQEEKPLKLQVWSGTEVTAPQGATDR
Chain of 5-hydroxytryptamine receptor 2A (P28223 whole entry): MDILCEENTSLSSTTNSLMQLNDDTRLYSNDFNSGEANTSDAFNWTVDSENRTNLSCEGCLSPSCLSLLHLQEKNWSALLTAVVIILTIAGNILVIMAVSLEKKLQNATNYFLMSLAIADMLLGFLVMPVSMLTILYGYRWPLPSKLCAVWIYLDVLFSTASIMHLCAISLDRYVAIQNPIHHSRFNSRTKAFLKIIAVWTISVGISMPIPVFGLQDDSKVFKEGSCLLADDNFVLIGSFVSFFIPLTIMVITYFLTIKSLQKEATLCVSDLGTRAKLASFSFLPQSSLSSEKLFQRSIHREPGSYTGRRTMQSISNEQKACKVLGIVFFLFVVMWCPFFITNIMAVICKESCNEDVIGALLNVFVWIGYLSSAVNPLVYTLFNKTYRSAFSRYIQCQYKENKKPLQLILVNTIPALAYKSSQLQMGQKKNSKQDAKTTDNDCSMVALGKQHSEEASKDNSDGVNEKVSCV
Chain of Vasopressin V1a receptor (P37288 whole entry): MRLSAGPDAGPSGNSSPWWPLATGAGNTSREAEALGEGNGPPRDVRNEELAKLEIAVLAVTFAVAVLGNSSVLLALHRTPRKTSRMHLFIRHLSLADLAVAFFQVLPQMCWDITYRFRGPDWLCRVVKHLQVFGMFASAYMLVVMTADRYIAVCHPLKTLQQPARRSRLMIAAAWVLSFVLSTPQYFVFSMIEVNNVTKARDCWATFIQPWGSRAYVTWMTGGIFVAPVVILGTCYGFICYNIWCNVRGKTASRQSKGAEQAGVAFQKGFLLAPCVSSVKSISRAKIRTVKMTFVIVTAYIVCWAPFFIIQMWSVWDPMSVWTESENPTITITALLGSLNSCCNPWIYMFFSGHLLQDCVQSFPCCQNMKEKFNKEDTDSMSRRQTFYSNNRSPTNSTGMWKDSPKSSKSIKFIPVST
Chain of Glucocorticoid receptor (P04150 whole entry): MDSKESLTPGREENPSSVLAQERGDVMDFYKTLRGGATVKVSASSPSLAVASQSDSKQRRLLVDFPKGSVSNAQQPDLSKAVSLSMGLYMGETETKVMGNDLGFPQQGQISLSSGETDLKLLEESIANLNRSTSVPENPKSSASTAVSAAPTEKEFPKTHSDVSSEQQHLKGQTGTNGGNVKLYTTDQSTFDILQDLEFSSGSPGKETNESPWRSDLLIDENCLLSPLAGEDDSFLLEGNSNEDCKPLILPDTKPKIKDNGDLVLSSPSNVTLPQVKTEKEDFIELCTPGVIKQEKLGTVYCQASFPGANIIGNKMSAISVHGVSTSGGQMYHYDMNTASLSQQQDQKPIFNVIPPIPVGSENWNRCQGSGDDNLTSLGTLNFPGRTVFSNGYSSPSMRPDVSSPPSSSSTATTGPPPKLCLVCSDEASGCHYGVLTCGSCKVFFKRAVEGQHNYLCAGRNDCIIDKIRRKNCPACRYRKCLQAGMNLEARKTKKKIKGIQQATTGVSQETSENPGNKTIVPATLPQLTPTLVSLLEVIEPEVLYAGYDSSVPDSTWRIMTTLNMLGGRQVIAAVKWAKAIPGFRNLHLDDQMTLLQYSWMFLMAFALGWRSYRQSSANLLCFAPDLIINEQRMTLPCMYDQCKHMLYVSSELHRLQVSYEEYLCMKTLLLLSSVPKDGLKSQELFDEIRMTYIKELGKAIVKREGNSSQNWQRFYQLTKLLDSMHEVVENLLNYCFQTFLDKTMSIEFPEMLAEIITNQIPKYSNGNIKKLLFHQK
Chain of Kappa-type opioid receptor (P41145 whole entry): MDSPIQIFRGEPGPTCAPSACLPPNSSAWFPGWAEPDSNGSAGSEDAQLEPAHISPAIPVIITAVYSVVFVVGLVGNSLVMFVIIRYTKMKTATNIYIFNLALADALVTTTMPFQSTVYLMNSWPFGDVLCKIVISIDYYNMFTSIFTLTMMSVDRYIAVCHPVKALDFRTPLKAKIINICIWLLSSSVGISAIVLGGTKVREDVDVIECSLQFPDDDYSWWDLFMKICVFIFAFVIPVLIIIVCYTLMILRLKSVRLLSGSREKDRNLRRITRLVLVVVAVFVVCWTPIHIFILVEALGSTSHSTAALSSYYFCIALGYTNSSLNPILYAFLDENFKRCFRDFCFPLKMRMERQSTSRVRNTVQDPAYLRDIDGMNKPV
Chain of Androgen receptor (P10275 whole entry): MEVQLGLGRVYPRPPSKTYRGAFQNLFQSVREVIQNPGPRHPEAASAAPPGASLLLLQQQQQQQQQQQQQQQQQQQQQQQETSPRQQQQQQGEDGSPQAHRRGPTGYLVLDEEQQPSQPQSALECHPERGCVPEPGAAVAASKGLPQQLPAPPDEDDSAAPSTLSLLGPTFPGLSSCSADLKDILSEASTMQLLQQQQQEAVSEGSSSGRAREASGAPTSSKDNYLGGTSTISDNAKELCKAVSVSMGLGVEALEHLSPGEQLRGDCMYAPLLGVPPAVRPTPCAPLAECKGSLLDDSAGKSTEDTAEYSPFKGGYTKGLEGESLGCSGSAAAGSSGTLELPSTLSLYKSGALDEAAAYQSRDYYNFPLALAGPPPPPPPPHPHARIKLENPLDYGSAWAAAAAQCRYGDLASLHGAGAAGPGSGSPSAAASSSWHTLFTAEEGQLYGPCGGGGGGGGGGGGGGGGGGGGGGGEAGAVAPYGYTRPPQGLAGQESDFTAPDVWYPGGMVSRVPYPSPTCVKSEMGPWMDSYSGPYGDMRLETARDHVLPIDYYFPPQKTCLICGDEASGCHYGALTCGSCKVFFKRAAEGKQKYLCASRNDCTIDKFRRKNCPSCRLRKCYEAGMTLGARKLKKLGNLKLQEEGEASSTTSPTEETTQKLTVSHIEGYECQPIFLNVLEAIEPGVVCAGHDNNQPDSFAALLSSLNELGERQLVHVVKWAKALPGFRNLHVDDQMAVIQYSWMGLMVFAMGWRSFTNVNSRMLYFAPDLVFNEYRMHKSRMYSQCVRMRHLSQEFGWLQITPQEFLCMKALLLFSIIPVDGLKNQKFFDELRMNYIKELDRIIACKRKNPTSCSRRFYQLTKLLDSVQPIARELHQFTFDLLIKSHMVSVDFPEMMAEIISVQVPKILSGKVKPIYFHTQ
Chain of Muscarinic acetylcholine receptor M2 (P08172 whole entry): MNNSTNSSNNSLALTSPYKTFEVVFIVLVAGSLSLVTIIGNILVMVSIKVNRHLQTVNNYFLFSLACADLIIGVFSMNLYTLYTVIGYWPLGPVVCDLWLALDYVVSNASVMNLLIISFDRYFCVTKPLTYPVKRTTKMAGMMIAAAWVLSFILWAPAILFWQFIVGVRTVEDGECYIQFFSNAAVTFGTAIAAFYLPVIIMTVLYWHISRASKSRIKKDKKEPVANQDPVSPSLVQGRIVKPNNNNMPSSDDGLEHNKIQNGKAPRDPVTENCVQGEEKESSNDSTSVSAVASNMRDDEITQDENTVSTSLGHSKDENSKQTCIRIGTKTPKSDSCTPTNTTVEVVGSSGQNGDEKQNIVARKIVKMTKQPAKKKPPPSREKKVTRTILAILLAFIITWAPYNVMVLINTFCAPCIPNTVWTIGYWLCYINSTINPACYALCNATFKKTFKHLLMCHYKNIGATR
Chain of 5-hydroxytryptamine receptor 1B (P28222 whole entry): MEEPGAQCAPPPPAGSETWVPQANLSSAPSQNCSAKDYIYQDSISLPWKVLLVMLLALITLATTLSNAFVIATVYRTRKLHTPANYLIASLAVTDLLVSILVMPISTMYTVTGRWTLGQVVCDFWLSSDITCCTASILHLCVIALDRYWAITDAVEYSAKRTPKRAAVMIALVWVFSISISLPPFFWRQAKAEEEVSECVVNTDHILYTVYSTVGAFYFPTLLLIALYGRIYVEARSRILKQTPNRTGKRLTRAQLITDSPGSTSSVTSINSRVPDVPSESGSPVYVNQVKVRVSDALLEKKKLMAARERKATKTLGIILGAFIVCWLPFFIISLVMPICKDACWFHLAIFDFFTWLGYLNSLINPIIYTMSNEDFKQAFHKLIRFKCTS
Chain of Delta-type opioid receptor (P41143 whole entry): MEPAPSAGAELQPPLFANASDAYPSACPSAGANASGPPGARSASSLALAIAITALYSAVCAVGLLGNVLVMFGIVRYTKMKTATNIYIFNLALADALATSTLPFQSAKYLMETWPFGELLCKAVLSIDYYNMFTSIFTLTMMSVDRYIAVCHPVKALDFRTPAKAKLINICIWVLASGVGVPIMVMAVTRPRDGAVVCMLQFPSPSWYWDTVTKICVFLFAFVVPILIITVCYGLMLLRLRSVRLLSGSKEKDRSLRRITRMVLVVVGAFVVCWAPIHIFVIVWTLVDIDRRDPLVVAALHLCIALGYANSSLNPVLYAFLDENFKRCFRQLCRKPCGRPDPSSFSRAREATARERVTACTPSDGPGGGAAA

SMILES: Cc1cn([C@H](C)CC#N)c(=O)c2cc(Cn3nc(C(F)F)cc3Cl)nn12
- IC50 [1]: > 10 µM
- EC50 (D(1A) dopamine receptor [2]): > 10 µM
- IC50 (D(1A) dopamine receptor [2]): > 10 µM
- EC50 [3]: > 9.6 µM (not active)
- EC50 [4]: > 10 µM
- IC50 [4]: > 10 µM
- EC50 [5]: > 10 µM
- IC50 [5]: > 10 µM
- EC50 [6]: > 10 µM
- IC50 [6]: > 10 µM
- IC50 [7]: > 10 µM
- inhibition [8]: 0.11%
- EC50 [9]: > 10 µM
- IC50 [9]: > 10 µM
- EC50 (Glucocorticoid receptor): > 10 µM
- IC50 (Glucocorticoid receptor): > 10 µM
- IC50 [10]: > 10 µM
- inhibition [11]: 11.9%
- inhibition (D(1A) dopamine receptor [12]): 1.34%
- EC50 (Cannabinoid receptor 1): > 10 µM
- IC50 (Cannabinoid receptor 1): > 10 µM
- inhibition (Histamine H2 receptor [13]): 3.64%
- IC50 [14]: > 10 µM
- EC50 [15]: > 10 µM
- IC50 [15]: > 10 µM
- IC50 [16]: > 10 µM
- IC50 [17]: > 10 µM
- IC50 [18]: 7.9 µM
- inhibition [19]: 4.32%
- IC50 (Acetylcholinesterase): > 10 µM
- EC50 [20]: > 30 µM (not active)
- IC50 [21]: > 10 µM
- EC50 (Adenosine receptor A2a): > 10 µM
- IC50 (Adenosine receptor A2a): > 10 µM
- inhibition [22]: -6.73%
- EC50 [23]: > 10 µM
- IC50 [23]: > 10 µM
- EC50 [24]: > 10 µM
- IC50 [24]: > 10 µM
- inhibition [25]: 33%
- EC50 (Vasopressin V1a receptor): > 10 µM
- IC50 (Vasopressin V1a receptor): > 10 µM
- inhibition [26]: -3.8%
- inhibition [27]: -1.62%
- inhibition [28]: 4.14%
- inhibition [29]: 19.3%
- inhibition [30]: 10.9%
- EC50 [31]: > 30 µM (not active)
- inhibition [32]: 10.6%
- IC50 [33]: > 10 µM
- EC50 (Androgen receptor): > 10 µM
- IC50 (Androgen receptor): > 10 µM
- IC50 [34]: > 10 µM
- EC50 (Endothelin-1 receptor): > 10 µM
- IC50 (Endothelin-1 receptor): > 10 µM
- EC50 [35]: > 10 µM
- IC50 [35]: > 10 µM
- inhibition (Histamine H1 receptor): 31.7%
- EC50 (D(2) dopamine receptor): > 10 µM
- IC50 (D(2) dopamine receptor): > 10 µM
- EC50 (Histamine H2 receptor [36]): > 10 µM
- IC50 (Histamine H2 receptor [36]): > 10 µM
